We go through one molecule from patent US6423701B1, “Water soluble amine esters of testosterone for intranasal administration” (University of Kentucky, priority 1996, dated 2002).

What is called AUC is the area under the concentration-time curve, a measure of exposure.

The data set in a line: Nasal absorption of TSDG in rats: plasma levels after intranasal and intravenous administration, HPLC. The following applies: male, Sprague-Dawley, rat. The format is in vivo. The protocol: Male Sprague-Dawley rats weighing 250-275 gm were used. Animals were fasted overnight before the experiment, but water was given ad libitum. All surgical procedures were performed under sodium pentobarbital anesthesia (40 mg/kg i.p.). An incision was made in the neck, and the trachea was cannulated with a polyethylene tube. A closed tube was inserted through the esophagus to the posterior part of the nasal cavity. The nasopalatine passage was closed with an adhesive agent to prevent drainage of the drug from the nasal cavity to the mouth.
Blood samples were collected from a cannula inserted into the femoral artery. For intravenous administration, the jugular vein was cannulated for administering the dose.
For intravenous administration, the same dose of the drug was injected through the jugular vein.
Blood samples were collected at 0, 5, 10, 20, 30, 40, 60, 90, 120, 150, and 180 minutes. After immediate centrifugation (3000×g for 3 min), the plasma was separated. The animal was sacrificed after the last sample was obtained, and the samples were then analyzed by HPLC, using the method of Hsyu et al. (Pharm. Res. 11:156-159, 1994). Briefly, plasma concentrations of testosterone free base were determined via a HPLC protocol which included solid-phase extraction, separation on a reverse-phase cyano column, and UV detection at 305 nm.

`C[C@]12CC[C@H]3[C@@H](CCC4=CC(=O)CC[C@@]43C)[C@@H]1CC[C@@H]2O` [TS, 17β-hydroxyandrost-4-en-3-one] returned an area under the curve (AUC) (inhaled or intranasal, intranasal, dose 25 mg/kg) of 1830 ng·h/mL; an AUC (inhaled or intranasal, intranasal, dose 50 mg/kg) of 3490 ng·h/mL; an exposure (AUC) (intravenous, dose 25 mg/kg) of 1770 ng·h/mL; an exposure (AUC) (intravenous, dose 50 mg/kg) of 3780 ng·h/mL.
